Patent US20260092179A1, “GENETICALLY MODIFIED HOST CELLS PRODUCING VIOLACEIN, ANALOGUES, AND DERIVATIVES THEREOF” (OCTARINE BIO APS, priority 2022, published 2026)

Key:
[1] = Artificial light stability of dyed fabrics (colour fastness, ΔE); type: physicochemical; conditions: for ΔE: before vs after LED lamp, room temperature, 16 h
Protocol: (§1) In order to assess the stability and colour fastness of violacein and violacein derivatives dyed onto fabrics, dyed fabrics were subjected to a number of conditions. Fabrics were dyed according to Example 18 and colour coordinates and colour change before and after exposure to a given condition were determined as described in Example 18. To measure temperature stability, fabrics were incubated in an oven set to 80° c. for 4 h. To measure stability under acid and alkaline conditions, fabrics were fully submerged in water solutions set to pH 8 with NaOH and pH 5 with HCl and incubated at room temperature for 30 minutes. Fabrics were then incubated at 37° c. for 4 h. To measure stability during laundering, fabrics were washed at 30° c. under the “mix” setting of a Siemens IQ300 washing machine, then dried in a Siemens IQ300 dryer until dry. To measure artificial light stability, fabrics were placed under an LED lamp at room temperature for 16 h. To measure UV light stability, fabrics were placed under a UV lamp at room temperature for 1 h.

[2] = UV absorption capability (absorbance maxima, UV-A, UV-B, UV-C absorption) by HPLC; type: physicochemical
Protocol: The software Agilent Openlab CDS Chemstation Rev.
Violacein is reported as being a potent UV absorbent able to effectively absorb UV radiation, however, much less is known about the other violacein derivatives. To investigate the potential of using violacein and violacein derivatives as UV inhibitors and to potentially impart UV protection to fabrics, the UV absorption spectra of each compound was analyzed by HPLC and the total absorption capability at each of the most relevant UV wavelengths quantified.
For the quantification of UV absorption capacity of the compound of interest, a chromatographic separation on the F5 column and a gradient of water/acetonitrile containing 0.05% formic acid was run according to Example 5). […] The compounds were quantified based on the signal at 230 nm, using calibration curves of authentic analytical standards.
The UV absorption capacity is represented in mAU.min/mM. UV-A, UV-B and UV-C represent the most relevant regions where UV protection is required. UV-C is the most harmful type of UV radiation and can be generated by inorganic sources. UV-B radiation predominantly comes from the suns rays and is responsible for sun burn. UV-A radiation is also derived predominantly from the suns rays, and while UV-A radiation is less harmful than UV-B or UV-C but is much more prevalent.

[3] = Stability during laundering of dyed fabrics (colour fastness, ΔE); type: physicochemical; conditions: washed at 30° c.
Protocol: as §1

[4] = Free radical scavenging ability of dyed Nylon 6,6 fabric (DPPH); type: biochemical; conditions: dyed Nylon 6,6 fabric strip
Protocol: Violacein is reported as being a potent antioxidant able to effectively scavenge free radicals. […] To test this, 1.5×1.5 cm dyed Nylon 6,6 fabric strips were incubated in the dark at room temperature for 1 h in 5 mL of a 5×10^−5 M DPPH free radical solution in 100% ethanol. Undyed Nylon 6,6 fabric strips were included as a negative control. After 1 h absorbance was measured at 517 nm and % scavenging ability calculated as above.

[5] = Acrylic, after test (LED lamp, room temperature, 16 h)
[6] = Bleached cotton, after test (LED lamp, room temperature, 16 h)
[7] = Diacetate, after test (LED lamp, room temperature, 16 h)
[8] = Nylon 6,6, after test (LED lamp, room temperature, 16 h)
[9] = Polyester, after test (LED lamp, room temperature, 16 h)
[10] = Wool, after test (LED lamp, room temperature, 16 h)

## O=C1NC(c2c[nH]c3ccc(O)cc23)=C/C1=C1\C(=O)Nc2ccccc21 [violacein]
[1]; [5]
  L: 69.82
  a: 3.01
  b: 3.46
[1]; Acrylic, before test
  L: 65.94
  a: 3.06
  b: 1.37
[1]; Acrylic
  ΔE: 4.41
[1]; [6]
  L: 62.61
  a: 4.18
  b: −6.26
[1]; Bleached cotton, before test
  L: 60.03
  a: 2.81
  b: −7.43
[1]; Bleached cotton
  ΔE: 3.15
[1]; [7]
  L: 52.2
  a: 6.06
  b: 1.03
[1]; Diacetate, before test
  L: 43.88
  a: 8.03
  b: 13.02
[1]; Diacetate
  ΔE: 14.73
[1]; [8]
  L: 34.82
  a: 4.72
  b: −17.83
[1]; Nylon 6,6, before test
  L: 38.2
  a: 11.52
  b: −16.9
[1]; Nylon 6,6
  ΔE: 7.65
[1]; [9]
  L: 73.11
  a: 2.28
  b: 1.66
[1]; Polyester, before test
  L: 68.58
  a: 3.06
  b: −1.75
[1]; Polyester
  ΔE: 5.72
[1]; [10]
  L: 71.32
  a: 1.18
  b: 3.25
[1]; Wool, before test
  L: 67.82
  a: 1.06
  b: 0.85
[1]; Wool
  ΔE: 4.25
[2]; 245 nm
  UV absorption capability in the UV-C region: particularly high
[2]; AUC of HPLC peak at 245 nm per mM
  Total UV absorption UV C (245 nm): 8876.8 (mAU · min)/mM
[2]; AUC of HPLC peak at 305 nm per mM
  Total UV absorption UV B (305 nm): 1011.6 (mAU · min)/mM
[2]; AUC of HPLC peak at 360 nm per mM
  Total UV absorption UV A (360 nm): 411.4 (mAU · min)/mM
[3]; Acrylic, After test
  L: 76.54
  a: 1.43
  b: 1.73
[3]; Acrylic, Before test
  L: 62.97
  a: 2.52
  b: 0.79
[3]; Acrylic, before and after the stability test
  ΔE: 13.65
[3]; Bleached cotton, After test
  L: 67.09
  a: 2.56
  b: −9.43
[3]; Bleached cotton, Before test
  L: 59.44
  a: 2.08
  b: −7.15
[3]; Bleached cotton, before and after the stability test
  ΔE: 8.00
[3]; Diacetate, After test
  L: 48.28
  a: 7.64
  b: −12.1
[3]; Diacetate, Before test
  L: 44.66
  a: 6.86
  b: −11.23
[3]; Diacetate, before and after the stability test
  ΔE: 3.80
[3]; Nylon 6,6, After test
  L: 36.95
  a: 5.38
  b: −21.45
[3]; Nylon 6,6, Before test
  L: 34.78
  a: 4.7
  b: −19.46
[3]; Nylon 6,6, before and after the stability test
  ΔE: 3.02
[3]; Polyester, After test
  L: 78.67
  a: 0.26
  b: 0.27
[3]; Polyester, Before test
  L: 69.07
  a: 1.41
  b: −0.67
[3]; Polyester, before and after the stability test
  ΔE: 9.71
[3]; Wool, After test
  L: 73.9
  a: 1.48
  b: 1.8
[3]; Wool, Before test
  L: 66.17
  a: 1.43
  b: 0.12
[3]; Wool, before and after the stability test
  ΔE: 7.91
[4]; 1 h in the dark in 5×10^−5 M DPPH in 100% ethanol
  OD517: 1.64
[4]; 1 h in the dark in 5×10^−5 M DPPH, vs undyed control
  Scavenging ability %: 27.53%
